Data on two compounds can be found in patent EP2229935A1, “Peptide derivatives or pharmaceutically acceptable salts thereof, method for producing the same, use of said derivatives and pharmaceutical composition” (Nebolsin, Vladimir Evgenievich, priority 1997, dated 1999).

Assay [1] concerns white mongrel male rats. Nature of the assay: Paw edema induced by Freund's complete adjuvant. Format: in vivo. The protocol:
Experiment was carried out on white mongrel male rats weghing 280-300 g. The model of paw edema induced by Freund's complete adjuvant (FCA), was reproduced according to the method of Ezamuzie and Umezurike [Ezamuzie Ch., Umezurike C.C. Effect of histamine H2-receptor antagonists on acute inflammatory of the rat paw oedema. J. Pharmacol. (1989), Vol. 41, pp. 261-265]. Paw volume measurement was done using a plethysmograph (Ugo Basile). Inhibition of inflammatory reaction expressed in percent, as calculated according to the formula: 100-[(R-L(exper.))/(L):(R-L(control))/(L)x100](%) [formula] where R - the right paw volume, L - the left paw volume.
Each group included 10 animals.
Group of animals: • Group 1 - control, animals were administered 0.5 ml of 1% starch solution. • Group 2 - animals were administered the compound XLVIII. • Group 3 - animals were administered the compound III. • Group 4 - animals were administered Naproxene.

The subject of assay [2] is Strain Aichi of type A human influenza virus. Format: in vivo. Conditions: for Survival rate in percent: series with Control - 2 (34.5); for Protection degree in percent: series with Control - 2.
Assay [3] relates to Isolate HIV-1/IV17 of type 1 human immunodeficiency virus. Nature of the assay: Viability of MT-4 cells acutely infected with HIV-1. Format: cell-based. Conditions: day 7. On the procedure:
Study was carried out on the culture of human lymphoblastoid cells MT-4. Isolate HIV-1/IV17 of type 1 human immunodeficiency virus from the collection of the D.I.Ivanovsky Institute for Virology was used in experiment. The test compounds of general formula (I): III, VI, VII were introduced into cellular culture at concentrations 1.0; 0.1 and 0.01 µg/ml. The reference drug Azidothymidine was introduced at a dose 0.05 µM/ml. The compounds were introduced into the culture of MT-4 cells at a dose 1000 TCD50 one hour prior to virus introduction. Viability of MT-4 cells was estimated by day 7 of experiment.
Viability of cells was the main efficacy parameter of the test compounds.

Assay [4] has as its system thromboxane A2 and prostacycline. Nature of the assay: Prostacycline to thromboxane ratio in mice with Lewis pulmonary carcinoma. Conditions: mice with transplanted Lewis carcinoma, day 24; 500 µg/kg per day in drinking water. The format is in vivo, C57B1 male mice. The protocol: Experiments were carried out on C57B1 male mice weighing 18-20 g. Lewis pulmonary carcinoma (generation 3) transplantation was performed according to a conventional technique [Experimental estrimation of antitumor drugs in the U.S.S.R. and the U.S.A. edited by E.P.Sof'ina, A.B.Syrkin, A.Goldin, A.Kline. Moscow, Meditsina publishers (1980), 296 pp.]. Each group included 8 animals. Administration of compound III at a dose 500 µg/kg per day in drinking water was commenced since 24 hours after tumor transplantation.
Determination of thromboxane A2 and prostacycline was done according to the technique described in example 35. By day 24 of experiments animals were sacrified and the test parameters were determined.
Groups of animals: • Group 1 - intact control. • Group 2 - mice with transplanted Lewis carcinoma. • Group 3 - mice with transplanted Lewis carcinoma + compound III.

Assay [5] has as its system mongrel male rats. As to conditions: po, 96 h.
Assay [6] deals with Human lymphocytes. In words: PHA-induced blasttransformation of lymphocytes. Format: cell-based. The protocol:
Human lymphocytes were used for blasttransformation reaction [Kiseleva E.P., Tsveibakh A.S., Goldman E.I., Pigareva N.V. Application of a micromethod to study blasttransformation of lymphocytes in humans and animals. Immunology (1985), No 1, pp. 76-78]. 10 ml blood were collected into a sterile syringe containing heparine (to final concentration 25 U/ml) and incubated to sediment red blood cells (60-90 minutes at 37°C). Leukocytic suspension layer was selected and the number of nucleated cells was calculated. The cells obtained in such a way were incubated for 72 hours in a humid atmosphere with 5% CO2 at 37°C in the cells of plates for immune reactions in RPMI-1640 medium comprising 15% fetal calf serum, […] Neomycine (incubation mixture volume 0.15 ml). 5 x 10^5 cells were introduced into each plate cell. Incubation was carried out in the presence or absence of mitogen phytohemagglutinin (PHA) (Sigma) […] or concanavalin A (ConA) (Sigma) […] with or without addition of the test compounds at different concentrations. […] H^3 -thymidine in RPMI-1640 medium were introduced into each cell 16 hours before incubation termination. Following culturing period termination, 0.15 ml cellular suspension from each plate cell were transferred on the FN-8 paper filters. Filters were dried, washed two times with normal saline for 5 minutes then twice with TCA for 60 minutes. After drying, radioactivity of samples was calculated on a counter in the ZhS-8 scintillator. Stimulation index was calculated as ratio of sample radioactivity with mitogen to sample radioactivity without mitogen.

Where two headings read alike, the source gives them in different places. Marks after values point to notes of the source that are not given here.
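For HDL-CS in this document: serum drawn 18 h after the final dose from rats deprived of food over that interval, groups of 10 animals.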
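For Kcs in this document: serum drawn 18 h after the final dose from rats deprived of food over that interval, groups of 10 animals.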
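For LDL-CS+ VLDL-CS in this document: serum drawn 18 h after the final dose from rats deprived of food over that interval, groups of 10 animals.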
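For Total CS in this document: serum drawn 18 h after the final dose from rats deprived of food over that interval, groups of 10 animals.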

For the compound `O=C(O)CCCC(=O)NCCc1c[nH]cn1` [compound III, N-GLUTARYLHISTAMINE], in assay [1], the “Volume of paws (conditional units) Right” value amounted to 1.85 ± 0.62 conditional units and the “Volume of paws (conditional units) left” value is given as 1.25 ± 0.34 conditional units. Moreover, in assay [2] (series with Control - 2 (9.1), 50 µg/kg orally, 3 days before and 10 days following infection), the “MLT” value was found to be 10.1 days. Also, the “MLT, days” value in assay [2] (series with Control - 2 (9.1), 500 µg/kg orally, 3 days before and 10 days following infection) is 11.5*^2 days. In assay [2] (50 µg/kg orally), the “Survival rate in percent” value is given as 86.6*^2% and the “Protection degree in percent” value was 52.1%. In addition, in assay [2] (500 µg/kg orally), the “Survival rate in percent” value is recorded as 76.6*^2% and the “Protection degree in percent” value amounted to 42.2%. In addition, in assay [3] (1.0 and 0.1 µg/ml), the “protective effect against cytodestructive HIV-1 effect (viability of MT-4 cells)” value is “comparable with the effect of the reference drug Azidothymidine”. Also, in assay [3] (Human immunodeficiency virus 1, MT4, 168 h, 0.01 µg/ml, series 1 (infected cells 10-17, non-infected 90), read-out: Viability of cells in percent), the viability at 0.01 µg/mL worked out at 18%. Moreover, in assay [3] (Human immunodeficiency virus 1, MT4, 168 h, 0.1 µg/ml, series 1 (infected cells 10-17, non-infected 90), read-out: Viability of cells in percent), the viability at 0.1 µg/mL was 39%. Further, in assay [3] (Human immunodeficiency virus 1, MT4, 168 h, 1.0 µg/ml, series 1 (infected cells 10-17, non-infected 90), read-out: Viability of cells in percent), the viability at 1 µg/mL is 68%. In assay [4], the Prostacycline is given as 5.80 ± 0.75*^2, the “Ratio 6-keto-PGF1α :TXB2” value is listed as 0.80 ± 0.11*^2 and the “Thromboxane A2” value is reported as 7.23 ± 0.18*^C. Besides, in assay [5] (0.05 mg/kg), the HDL-CS is 46,1±2,8**^A, the Kcs is recorded as 0,9±0,04***^A, the “LDL-CS+ VLDL-CS” value is on record as 41,7±3,1***^A and the “Total CS” value was 87,8±2,8*^A. Besides, in assay [5] (0.05 mg/kg), the Triglycerides is listed as 136,4±9,7. In addition, in assay [5] (0.5 mg/kg), the HDL-CS is listed as 53,1±6,2*^A, the Kcs is on record as 0,62±0,05***^A, the “LDL-CS+ VLDL-CS” value is 33,1±2,9***^A and the “Total CS” value is on record as 86,2±5,6. Besides, in assay [5] (0.5 mg/kg), the Triglycerides is listed as 90,0±6,7***^A.

Regarding γ-L-glutamylhistamine [compound XLIV], in assay [6], the “blasttranformation reaction of human lymphocytes induced by PHA” value is reported as “stimulating effect”. Besides, the “Radioactivity, number of pulses for 20 seconds” value in assay [6] (10^-4 M/l, +PHA) is recorded as 3276 ± 225 number of pulses for 20 seconds; in assay [6] (10^-4 M/l, no mitogen) it was 301 ± 103 number of pulses for 20 seconds; in assay [6] (10^-5 M/l, +PHA), 2999 ± 213 number of pulses for 20 seconds; in assay [6] (10^-5 M/l, no mitogen), 132 ± 13 number of pulses for 20 seconds; in assay [6] (10^-6 M/l, +PHA), 4414 ± 570 number of pulses for 20 seconds; in assay [6] (10^-6 M/l, no mitogen), 150 ± 33 number of pulses for 20 seconds. Also, the “Radioactivity, number of pulses for 20 seconds” value in assay [6] (10^-7 M/l, +PHA) is 2960 ± 210 number of pulses for 20 seconds; in assay [6] (10^-7 M/l, no mitogen), 300 ± 107 number of pulses for 20 seconds; in assay [6] (10^-8 M/l, +PHA), 3830 ± 286 number of pulses for 20 seconds; in assay [6] (10^-8 M/l, no mitogen), 261 ± 100 number of pulses for 20 seconds. In addition, the Stimulation index is listed as 10.9 in assay [6] (10^-4 M/l, +PHA); 23.2 in assay [6] (10^-5 M/l, +PHA); 29.6 in assay [6] (10^-6 M/l, +PHA); 9.9 in assay [6] (10^-7 M/l, +PHA); 14.7 in assay [6] (10^-8 M/l, +PHA).

By viability is commonly meant a read-out of living cells in per cent, often relative to untreated cells.
